Source: patent US20250241914A1, “BIFUNCTIONAL PHARMACEUTICAL COMPOUNDS” (DE MONTFORT UNIVERSITY, priority 2024, published 2025)

Columns and labels:
[1] = test system: M. tuberculosis rifampicin resistant strain RpoBS522L (H37Rv); type: cell-based, Mycobacterium tuberculosis
[2] = test system: M. tuberculosis rifampicin-resistant strain RpoBS531L; type: cell-based, Mycobacterium tuberculosis

SMILES	Mycobacterium tuberculosis strain MIC90, RpoBS522L H37Rv [1] [µM]	Mycobacterium tuberculosis strain MIC90, RpoBS531L [2] [µM]
CO[C@H]1/C=C/O[C@@]2(C)Oc3c(C)c(O)c4c(O)c(c(CNCCOCCOCCOCn5cc(CCn6cc(F)c(=O)[nH]c6=O)nn5)c(O)c4c3C2=O)NC(=O)/C(C)=C\C=C\[C@H](C)[C@H](C)[C@@H](C)[C@@H](O)[C@@H](C)[C@H](OC(C)=O)[C@@H]1C [Compound 3B]	0.32	0.23
CO[C@H]1/C=C/O[C@@]2(C)Oc3c(C)c(O)c4c(O)c(c(CNCCOCCOCCOCn5cc(CCCn6cc(F)c(=O)[nH]c6=O)nn5)c(O)c4c3C2=O)NC(=O)/C(C)=C\C=C\[C@H](C)[C@H](C)[C@@H](C)[C@@H](O)[C@@H](C)[C@H](OC(C)=O)[C@@H]1C [Compound 3C]	0.47	0.21
NNC(=O)c1ccncc1 [Isoniazid, reference compound]	0.29	0.55
CO[C@H]1/C=C/O[C@@]2(C)Oc3c(C)c(O)c4c(O)c(c(CNCCCn5cc(CCn6cc(F)c(=O)[nH]c6=O)nn5)c(O)c4c3C2=O)NC(=O)/C(C)=C\C=C\[C@H](C)[C@H](C)[C@@H](C)[C@@H](O)[C@@H](C)[C@H](OC(C)=O)[C@@H]1C [Compound 3A]	0.31	0.22
